How the values were obtained:
OsMAX1-1400 = molecular target: T1, OsMAX1-1400 (Oryza sativa, UniProt W5QV10); assay: LC-MS/MS enzyme assay (4DO to orobanchol) with microsomes of yeast overexpressing the enzyme; format: biochemical
T1 construct: gene Os01g0701400
T1 sequence (W5QV10 1-541): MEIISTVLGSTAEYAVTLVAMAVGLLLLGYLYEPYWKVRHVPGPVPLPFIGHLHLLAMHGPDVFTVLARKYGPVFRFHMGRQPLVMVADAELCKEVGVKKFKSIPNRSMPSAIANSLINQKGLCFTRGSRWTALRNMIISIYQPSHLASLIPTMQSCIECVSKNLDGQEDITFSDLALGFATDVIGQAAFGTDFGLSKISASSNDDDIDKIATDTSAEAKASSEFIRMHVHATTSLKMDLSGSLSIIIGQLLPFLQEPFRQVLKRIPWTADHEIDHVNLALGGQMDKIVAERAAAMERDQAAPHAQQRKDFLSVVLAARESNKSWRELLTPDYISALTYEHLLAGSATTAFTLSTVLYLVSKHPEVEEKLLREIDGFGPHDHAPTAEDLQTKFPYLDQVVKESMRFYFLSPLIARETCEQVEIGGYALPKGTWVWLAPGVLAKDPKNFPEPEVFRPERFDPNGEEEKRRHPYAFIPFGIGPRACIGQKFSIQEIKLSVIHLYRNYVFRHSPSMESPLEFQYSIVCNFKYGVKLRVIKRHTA

OsMAX1-900 = molecular target: T2, OsMAX1-900 (Oryza sativa, UniProt M9R6D3); assay: LC-MS/MS enzyme assay (CL to CLA, CLA to 4DO) with microsomes of yeast overexpressing the enzyme; format: biochemical
T2 construct: gene Os01g0700900
T2 sequence (M9R6D3 1-539): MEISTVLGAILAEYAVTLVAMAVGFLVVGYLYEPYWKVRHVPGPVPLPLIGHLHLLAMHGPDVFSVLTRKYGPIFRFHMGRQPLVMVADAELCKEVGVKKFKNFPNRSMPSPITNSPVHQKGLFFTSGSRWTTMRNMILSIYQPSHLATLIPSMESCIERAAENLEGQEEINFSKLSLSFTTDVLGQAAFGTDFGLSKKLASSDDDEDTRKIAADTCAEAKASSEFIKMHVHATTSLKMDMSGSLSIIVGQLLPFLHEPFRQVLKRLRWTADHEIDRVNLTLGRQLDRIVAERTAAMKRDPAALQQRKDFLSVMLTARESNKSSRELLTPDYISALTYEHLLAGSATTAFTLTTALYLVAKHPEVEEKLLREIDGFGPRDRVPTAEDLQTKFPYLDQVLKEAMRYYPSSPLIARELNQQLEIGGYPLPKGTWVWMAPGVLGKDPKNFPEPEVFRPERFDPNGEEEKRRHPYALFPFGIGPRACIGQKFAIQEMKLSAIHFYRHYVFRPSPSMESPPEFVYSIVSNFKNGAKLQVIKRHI

IC50 (OsMAX1-1400): 20 nM
IC50 (OsMAX1-900): 150 nM
Compound: O=C(c1ccccc1)C(CCCCOc1ccccc1)n1cncn1 (centres unmarked) [TIS108]

Reference: publication PMC9629705, “Canonical strigolactones are not the major determinant of tillering but important rhizospheric signals in rice” (Science Advances, 2022)
